Laboratory results taken from article PMC10709440, “High-throughput ligand profile characterization in novel cell lines expressing seven heterologous insect olfactory receptors for the detection of volatile plant biomarkers” (Scientific Reports, 2023).
Like-named read-outs stand apart in the source and are kept apart here.

Experiments:
Drosophila OR98a = target: T1, Drosophila OR98a (Drosophila melanogaster, UniProt Q9VAZ3); assay: cell-based; set-up: GCaMP6 calcium fluorescence in stable HEK293 OR+ORCO lines; peak dF normalised to 50 uM VUAA1 (=1); conditions: HEK293; relative to 50 uM VUAA1 response; below 0.05 set to 0; read-out: % activation
T1 construct: expressed in transfected cells
T1 sequence (Q9VAZ3 1-397): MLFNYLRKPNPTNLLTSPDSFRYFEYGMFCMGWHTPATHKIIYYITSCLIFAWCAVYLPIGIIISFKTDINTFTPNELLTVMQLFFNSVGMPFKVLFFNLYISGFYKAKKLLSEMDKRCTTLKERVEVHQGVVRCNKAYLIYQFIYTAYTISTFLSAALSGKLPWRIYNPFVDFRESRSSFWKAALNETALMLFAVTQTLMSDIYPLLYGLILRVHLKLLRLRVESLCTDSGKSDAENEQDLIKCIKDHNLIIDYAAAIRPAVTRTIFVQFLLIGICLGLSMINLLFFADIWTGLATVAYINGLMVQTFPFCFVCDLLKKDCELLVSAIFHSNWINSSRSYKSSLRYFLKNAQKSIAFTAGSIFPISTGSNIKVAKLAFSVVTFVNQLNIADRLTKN
T1 sequence (Q9VNB5 1-486 partner): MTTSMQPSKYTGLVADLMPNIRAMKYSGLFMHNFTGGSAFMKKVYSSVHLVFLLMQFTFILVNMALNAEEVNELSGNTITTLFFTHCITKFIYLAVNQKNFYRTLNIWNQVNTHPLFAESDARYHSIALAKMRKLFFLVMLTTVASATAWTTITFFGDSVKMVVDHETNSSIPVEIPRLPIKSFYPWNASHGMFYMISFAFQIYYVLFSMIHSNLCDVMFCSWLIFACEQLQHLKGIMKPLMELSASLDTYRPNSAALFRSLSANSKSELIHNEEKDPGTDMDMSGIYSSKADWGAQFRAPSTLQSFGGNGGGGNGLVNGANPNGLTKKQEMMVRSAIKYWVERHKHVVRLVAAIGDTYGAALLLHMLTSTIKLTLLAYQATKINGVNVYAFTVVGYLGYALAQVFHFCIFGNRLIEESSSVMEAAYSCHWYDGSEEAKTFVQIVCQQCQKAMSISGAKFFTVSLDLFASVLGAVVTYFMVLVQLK
Procedure: Twelve thousand to 18,000 cells were plated into each well of a black wall, transparent bottom 384-well microplate (Greiner) 48 h or 72 h before the measurements and were simultaneously treated with 1 μg/mL doxycycline. […] The plate has 24 columns, thus we could record responses in up to eight different cell lines in each plate. On the day of the experiment, the growth medium was replaced with 20 µL assay buffer/well (140 mM NaCl, 5 mM KCl, 2 mM CaCl2, 1 mM MgCl2, 5 mM HEPES-Na, 20 mM glucose, pH 7.3, 340 mOsm). […] Baseline fluorescence (F0) was recorded for 5 s, after which 7 µL VOC buffer (140 mM NaCl, 5 mM KCl, 2 mM CaCl2, 1 mM MgCl2, 5 mM HEPES-Na, 31 mM glucose, 0.1% DMSO, pH 7.3, 340 mOsm) was injected into each well in one row and the fluorescence response was recorded for an additional 30 s, at a rate of one read/sec. VOC solutions (VOC buffer with 4× concentration of the final measured VOC concentration, 9 µL/well was injected) were measured on the same wells in a second round with the same protocol. Each individual concentration of a specific VOC sample was recorded in three wells for the same cell line on the same microplate. The raw data were exported in xls file format, F0 and FMAX values, and the fluorescence intensity changes (∆F) were calculated in Excel (Microsoft) (Supplementary file Data summary.xlsx) using the following equation: ΔF=FMAX-F0/F0 (see also Fig. 1C). On each plate, we recorded the response of each cell line to 50 µM VUAA1. The average of these ∆F values of each cell line were used to calculate the VUAA1-normalized values for the rest of the plate, by dividing VOC response ∆F values by the average VUAA1 response ∆F value of the corresponding OR cell line. Each VOC-OR combination was measured three times as tec The recorded FMAX, F0, ∆F, VUAA1-normalized ∆F values, as well as the OR name, the name of the tested sample, and the final concentration for each well were copied into supplementary file Data summary.xlsx, that was used to summarize all the plates recorded. Here, the averages of the measurements were calculated for each receptor-VOC-concentration combination. […] Each VOC was measured at 1, 10, and 100 µM final concentration on each receptor. VUAA1-normalized response was calculated as described in methods.

OR13a [1] = conditions: Bactrocera dorsalis OR13a; read-out: EC50 in electrophysiology; cited from earlier work
OR13a [2] = conditions: Bactrocera dorsalis OR13a in HEK293 cells; read-out: EC50 in fluorescent measurements; cited from earlier work

SMILES: C=C1[C@H]2CC[C@@H]3[C@H]2C(C)(C)CCC[C@]13C [(+)-longifolene]
- activity at 1 µM (Drosophila OR98a): 0%
- activity at 10 µM (Drosophila OR98a): 12.6%
- activity at 100 µM (Drosophila OR98a): 0%

SMILES: CC1=CCC[C@@]2(C)[C@@H]3CC[C@]12CC3(C)C [(−)-α-neoclovene]
- activity at 1 µM (Drosophila OR98a): 14.8%

SMILES: C=C1CC[C@@]23C[C@@H]1C(C)(C)[C@@H]2CC[C@H]3C [(+)-beta-cedrene]
- activity at 1 µM (Drosophila OR98a): 8.55%
- activity at 10 µM (Drosophila OR98a): 5.99%
- activity at 100 µM (Drosophila OR98a): 6.08%

SMILES: C=C(C)C1CCC2(C)OC2C1 (single isomer, unassigned; (+)) [(+)-limonene oxide]
- activity at 1 µM (Drosophila OR98a): 0%
- activity at 10 µM (Drosophila OR98a): 0%
- activity at 100 µM (Drosophila OR98a): 0%

SMILES: C=CC(O)CCCCC (stereo not drawn) [1-octen-3-ol]
- EC50 (OR13a [1]): 1.27 µM
- EC50 (OR13a [2]): 11.3 µM

SMILES: C=C(C)[C@H]1CC=C(C)CC1 [(R)-(+)-limonene]
- activity at 1 µM (Drosophila OR98a): 0%
- activity at 10 µM (Drosophila OR98a): 0%
- activity at 100 µM (Drosophila OR98a): 0%
